Values quoted from earlier work in patent publication US10987332B2, “Sprayable aqueous composition comprising glyceryl trinitrate” (G. POHL-BOSKAMP GMBH & CO. KG, priority 2013, dated 2021).

What was measured:
Sprague-Dawley rats [1] = details: RIP (Modules 2-4)
Sprague-Dawley rats [2] = details: rat, in vivo

| SMILES | VPB-Score (Sprague-Dawley rats [1]) | Infarct size (Sprague-Dawley rats [2]) [%] | solubility in water |
| --- | --- | --- | --- |
| O=[N+]([O-])O[C@H]1CO[C@H]2[C@@H]1OC[C@H]2O[N+](=O)[O-] [ISDN, isosorbide dinitrate] | 4.57 | 7.59±4.38 | – |
| O=[N+]([O-])OCC(CO[N+](=O)[O-])O[N+](=O)[O-] [NTG, nitroglycerin] | – | – | about 1 mg/ml |
